# In PubChem BioAssay (NCI):
#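 Grown in 96-well plates, cells were treated for 48 hours with each compound at five concentrations. Insufficient inhibition: endpoint recorded as highest concentration tested. Abbreviation: GI50, concentration required for 50% inhibition of growth. Definition used: TGI = concentration required for complete inhibition of growth.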
# Key:
# Assay in all cases: growth of human tumour cells (NCI), 48 h
# [1] = system: EKVX NSCLC
# [2] = system: CCRF-CEM leukemia
# [3] = system: OVCAR-4 ovarian
# [4] = system: HS 578T breast
# [5] = system: ACHN renal
# [6] = system: A549 NSCLC
# [7] = system: IGROV1 ovarian
# [8] = system: UACC-257 melanoma
# [9] = system: MDA-MB-435
# [10] = system: CAKI-1 renal
# [11] = system: SK-OV-3 ovarian
# [12] = system: HCT-116 colon
# [13] = system: HOP-62 NSCLC
# [14] = system: T-47D breast
# [15] = system: PC-3 prostate
# [16] = system: NCI/ADR-RES ovarian
# [17] = system: UACC-62 melanoma
# [18] = system: HOP-92 NSCLC
# [19] = system: SN12C renal
# [20] = system: SR leukemia
# [21] = system: SK-MEL-5 melanoma
# [22] = system: LOX IMVI melanoma
# [23] = system: HCT-15 colon
# [24] = system: KM12 colon
# [25] = system: DU-145 prostate
# [26] = system: U251 CNS
# [27] = system: SF-539 CNS
# [28] = system: OVCAR-3 ovarian
# [29] = system: MOLT-4 leukemia
# [30] = system: RXF 393 renal
# [31] = system: SNB-75 CNS
# [32] = system: K-562 leukemia
# [33] = system: NCI-H522 lung
# [34] = system: BT-549 breast
# [35] = system: NCI-H460 lung
# [36] = system: OVCAR-8 ovarian
# [37] = system: HT29 colon
# [38] = system: SF-295 CNS
# [39] = system: NCI-H226 lung
# [40] = system: SK-MEL-28 melanoma
# [41] = system: MDA-MB-231 breast
# [42] = system: OVCAR-5 ovarian
# [43] = system: NCI-H23 lung
# [44] = system: 786-0 renal
# [45] = system: MCF7 breast
# [46] = system: SF-268 CNS
# [47] = system: TK-10 renal
# [48] = system: M14 melanoma
# [49] = system: HCC-2998 colon
# [50] = system: SW-620 colon
# [51] = system: RPMI-8226 leukemia
# [52] = system: SNB-19 CNS
# [53] = system: A498 renal
# [54] = system: COLO 205 colon
# [55] = system: HL-60(TB) leukemia
# [56] = system: MALME-3M melanoma
# [57] = system: SK-MEL-2 melanoma
# [58] = system: UO-31 renal
structure (smiles),measurement,setting,value
Clc1ccc(C2c3ccccc3-c3nccn32)c(Cl)c1 (centres undefined),GI50,[1],5.28 µM
same,TGI,[1],19.3 µM
same,GI50,[2],2.77 µM
same,TGI,[2],> 44.1 µM
same,GI50,[3],3.6 µM
same,TGI,[3],17.4 µM
same,GI50,[4],13.6 µM
same,TGI,[4],35.5 µM
same,GI50,[5],12.3 µM
same,TGI,[5],26.9 µM
same,GI50,[6],13.4 µM
same,TGI,[6],36.7 µM
same,GI50,[7],11.7 µM
same,TGI,[7],> 47.9 µM
same,GI50,[8],12.5 µM
same,TGI,[8],28.9 µM
same,GI50,[9],10.6 µM
same,TGI,[9],22.5 µM
same,GI50,[10],1.98 µM
same,TGI,[10],19 µM
same,GI50,[11],14.7 µM
same,TGI,[11],33.2 µM
same,GI50,[12],9.7 µM
same,TGI,[12],39.2 µM
same,GI50,[13],16.9 µM
same,TGI,[13],44.2 µM
same,GI50,[14],5.13 µM
same,TGI,[14],32.8 µM
same,GI50,[15],11.6 µM
same,TGI,[15],31.3 µM
same,GI50,[16],6.57 µM
same,TGI,[16],24 µM
same,GI50,[17],9.66 µM
same,TGI,[17],23 µM
same,GI50,[18],9.94 µM
same,TGI,[18],25.7 µM
same,GI50,[19],13.8 µM
same,TGI,[19],30.6 µM
same,GI50,[20],2.34 µM
same,TGI,[20],30 µM
same,GI50,[21],6.3 µM
same,TGI,[21],18.8 µM
same,GI50,[22],11.2 µM
same,TGI,[22],23.9 µM
same,GI50,[23],11.5 µM
same,TGI,[23],24.4 µM
same,GI50,[24],13.2 µM
same,TGI,[24],26.6 µM
same,GI50,[25],13.6 µM
same,TGI,[25],26.4 µM
same,GI50,[26],13.4 µM
same,TGI,[26],26.2 µM
same,GI50,[27],15 µM
same,TGI,[27],28.5 µM
same,GI50,[28],11 µM
same,TGI,[28],22.9 µM
same,GI50,[29],2.8 µM
same,TGI,[29],20.5 µM
same,GI50,[30],14.6 µM
same,TGI,[30],30.6 µM
same,GI50,[31],11.2 µM
same,TGI,[31],23.7 µM
same,GI50,[32],1.37 µM
same,TGI,[32],> 40.5 µM
same,GI50,[33],11.4 µM
same,TGI,[33],31.7 µM
same,GI50,[34],9.01 µM
same,TGI,[34],21.7 µM
same,GI50,[35],12.2 µM
same,TGI,[35],24.6 µM
same,GI50,[36],12.6 µM
same,TGI,[36],32.5 µM
same,GI50,[37],9.87 µM
same,TGI,[37],24.6 µM
same,GI50,[38],4.52 µM
same,TGI,[38],18.3 µM
same,GI50,[39],6.92 µM
same,TGI,[39],26 µM
same,GI50,[40],13.6 µM
same,TGI,[40],26.5 µM
same,GI50,[41],11.5 µM
same,TGI,[41],26 µM
same,GI50,[42],14.8 µM
same,TGI,[42],30.1 µM
same,GI50,[43],6.56 µM
same,TGI,[43],35.5 µM
same,GI50,[44],19.5 µM
same,TGI,[44],> 55.2 µM
same,GI50,[45],12.5 µM
same,TGI,[45],25.7 µM
same,GI50,[46],14 µM
same,TGI,[46],27.4 µM
same,GI50,[47],13.7 µM
same,TGI,[47],28.6 µM
same,GI50,[48],21.2 µM
same,TGI,[48],62.4 µM
same,GI50,[49],13.9 µM
same,TGI,[49],28.1 µM
same,GI50,[50],13.6 µM
same,TGI,[50],26.5 µM
same,GI50,[51],0.941 µM
same,TGI,[51],8.48 µM
same,GI50,[52],13.2 µM
same,TGI,[52],27.4 µM
same,GI50,[53],12.2 µM
same,TGI,[53],24.6 µM
same,GI50,[54],13.5 µM
same,TGI,[54],28 µM
same,GI50,[55],2.25 µM
same,TGI,[55],18.4 µM
same,GI50,[56],10.6 µM
same,TGI,[56],23.1 µM
same,GI50,[57],11.3 µM
same,TGI,[57],26 µM
same,GI50,[58],7.37 µM
same,TGI,[58],23.3 µM
CC(=O)OCC1OC(n2c(-c3cccs3)c3c(c(C#N)c2=S)-c2ccccc2CC3)C(OC(C)=O)C(OC(C)=O)C1OC(C)=O (centres undefined),TGI,[1],70.9 µM
same,TGI,[2],> 83.6 µM
same,TGI,[3],> 95.7 µM
same,TGI,[4],70.3 µM
same,TGI,[5],> 64 µM
same,TGI,[6],> 87.1 µM
same,TGI,[7],> 75.1 µM
same,TGI,[8],> 55.4 µM
same,TGI,[9],9.09 µM
same,TGI,[10],64.7 µM
same,TGI,[11],> 100 µM
same,TGI,[12],> 50.4 µM
same,TGI,[13],> 65.4 µM
same,TGI,[14],42.8 µM
same,TGI,[15],> 65.3 µM
same,TGI,[16],> 70.8 µM
same,TGI,[17],43.1 µM
same,TGI,[18],29.9 µM
same,TGI,[19],> 100 µM
same,TGI,[20],> 29.8 µM
same,TGI,[21],23 µM
same,TGI,[22],22.5 µM
same,TGI,[23],> 56.8 µM
same,TGI,[24],> 50.2 µM
same,TGI,[25],> 100 µM
same,TGI,[26],> 53.8 µM
same,TGI,[27],> 49.3 µM
same,TGI,[28],43.1 µM
same,TGI,[29],> 37.7 µM
same,TGI,[30],29.3 µM
same,TGI,[31],26.7 µM
same,TGI,[32],> 100 µM
same,TGI,[33],34 µM
same,TGI,[34],> 55.6 µM
same,TGI,[35],> 45.8 µM
same,TGI,[36],> 46.6 µM
same,TGI,[37],27.2 µM
same,TGI,[38],> 55.8 µM
same,TGI,[39],> 56.7 µM
same,TGI,[40],> 59.2 µM
same,TGI,[41],87.9 µM
same,TGI,[42],> 100 µM
same,TGI,[43],> 56.6 µM
same,TGI,[44],58.5 µM
same,TGI,[45],49.2 µM
same,TGI,[46],> 64.4 µM
same,TGI,[47],> 30.2 µM
same,TGI,[48],> 50.8 µM
same,TGI,[49],33.5 µM
same,TGI,[50],> 63.4 µM
same,TGI,[51],17 µM
same,TGI,[52],> 100 µM
same,TGI,[53],40.9 µM
same,TGI,[54],32.9 µM
same,TGI,[55],> 28.1 µM
same,TGI,[56],> 51.8 µM
same,TGI,[57],31.5 µM
same,TGI,[58],20.6 µM
